{"source": "patent US8961931B2", "about": "“18F-labeled monomeric galactose derivative used as tomography probe” (Institute of Nuclear Energy Research, Atomic Energy Council, priority 2011, dated 2015)", "system": "liver", "assay": "DMN-induced liver fibrosis, H & E and Masson's trichrome staining", "assay_type": "in vivo, mouse", "experimental": "Please refer to FIG. 6, which is a view showing liver fibrosis of mice dyed through H & E and Masson methods. As shown in the figures, dimethylnitrosamine (DMN) is used to induce liver fibrosis. 12 mice are randomly divided into two groups each having 6 mice. One is an experimental group and the other is a control group. Mice in the experimental group are injected with 10 mg·kg of DMN for 3 continuous days in a week, and this process lasts for four weeks. Mice in the control group are injected with the same amount of normal saline diluted into a density of 10 mg/ml. During the time for inducing liver fibrosis, all mice are fed with food and water normally. Four days after injecting DMN the final time, dyeing methods of H & E and Masson's are used to examine sliced tissues of mouse bodies for confirming DMN's ability on inducing liver fibrosis of the mice.\nFor examining the tissues, the mice are sacrificed by blowing high-density CO2 for the mice to breathe in at first. Then, the livers are taken out to sink left lateral lobe in 4% pH 7.4 phosphate-buffered paraformaldehyde. After being paraffin-embedded for 24 hrs, 4 μm of each tissue is taken.\nThe tissues are examined for their morphological changes through methods of Hematoxylin and Eosin stains and then Masson's trichrome is used to examine statuses of liver fibrosis. […]", "data": [{"compound": "CN(C)N=O", "note": "[DMN, dimethylnitrosamine]", "values": [{"measurement": "average weight of mouse having fibrosis liver relative to normal mouse", "setting": "DMN 3 continuous days a week for four weeks", "value": 92, "unit": "%"}, {"measurement": "Masson's trichrome staining of liver tissue", "setting": "four days after final DMN injection", "value": "show blue color on fibrosis tissues"}]}]}
